According to patent US20090197916A1, “SOLUBLE EPOXIDE HYDROLASE INHIBITORS FOR TREATMENT OF METABOLIC SYNDROME AND RELATED DISORDERS” (Arete Therapeutics, Inc, priority 2007, published 2009):
Each block holds one compound with its values, some of them ahead of it.

What was measured:
[1] = tested on: wild-type mice on high-fat, high-fructose diet (HF) or standard chow (NC); experiment: Metabolic Syndrome Model 2: diet induced obesity mouse model; type: in vivo; settings: for weight gain, HF-fed animals / total plasma cholesterol / glucose tolerance (GTT) / statistical significance of attenuated weight gain: HF diet; for weight gain, HF-fed animals: 60 mg/kg twice daily (Losartan 10 mg/kg/day in drinking water); for weight gain, HF-fed animals / total plasma cholesterol / glucose tolerance (GTT): vs vehicle; for total plasma cholesterol: 60 mg/kg twice daily, 4 weeks; for glucose tolerance (GTT): after 4 weeks of dosing 60 mg/kg twice daily; for statistical significance of attenuated weight gain: from second week of dose administration
Source text: Seven groups of 10 wild-type mice were entered onto the study. Five groups were placed on an ad libitum high-fat, high-fructose diet (HF); two groups were fed ad libitum with standard rodent chow and water (NC). Animals were maintained on the respective diet for the entire 12 weeks of the study. […] Losartan (Cozaar®) is a compound approved by the FDA for the treatment of hypertension, reducing the risk of stroke in a patient with hypertension and left ventricular hypertrophy, and treatment of diabetic nephropathy with an elevated serum […] and proteinuria in patients with type 2 diabetes and a history of hypertension.
Glucose tolerance tests (GTTs) were performed in Week 7 (prior to the start of dosing) and Week 12 (after 4 weeks of dosing). Body weights were recorded semi-weekly throughout the study whereas chow consumption and liquid intake were recorded weekly. Plasma was collected from untreated (Week 7, prior to the start of dosing) and treated (at the end of in-life) animals and submitted for the determination of plasma cholesterol. At the end of the in-life period, animals were sacrificed after terminal bleeds and discarded; no necropsies were performed.

sEH = target: T1, sEH (Homo sapiens, UniProt P34913); experiment: sEH inhibition, fluorescent assay with CMNPC substrate (percent inhibition and IC50); type: biochemical; settings: for IC50: procedure similar to the percent inhibition procedure
T1 sequence (P34913 1-555): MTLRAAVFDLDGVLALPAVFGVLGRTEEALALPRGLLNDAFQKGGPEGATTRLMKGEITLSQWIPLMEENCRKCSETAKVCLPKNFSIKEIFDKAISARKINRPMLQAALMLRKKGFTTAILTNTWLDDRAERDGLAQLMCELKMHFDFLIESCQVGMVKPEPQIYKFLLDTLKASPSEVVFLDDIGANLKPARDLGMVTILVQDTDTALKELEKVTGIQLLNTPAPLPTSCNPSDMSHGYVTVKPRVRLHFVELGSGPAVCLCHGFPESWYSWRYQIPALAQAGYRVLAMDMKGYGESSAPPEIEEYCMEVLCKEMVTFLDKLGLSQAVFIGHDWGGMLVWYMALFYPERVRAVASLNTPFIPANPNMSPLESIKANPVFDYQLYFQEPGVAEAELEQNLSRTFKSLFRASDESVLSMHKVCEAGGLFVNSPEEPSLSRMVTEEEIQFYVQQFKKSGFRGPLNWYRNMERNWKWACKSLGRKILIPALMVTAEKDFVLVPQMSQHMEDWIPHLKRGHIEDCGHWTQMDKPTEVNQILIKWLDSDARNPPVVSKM
Protocol: The substrate for the reaction was:
Therefore, well A2 would refer to a well in the first row and second column of the plate.
In a black 96 well plate, all the wells are filled with 150 μL of buffer A (Buffer A: Bis/Tris HCl, 25 mM, pH 7.0 plus 0.1 mg/mL BSA). DMSO (2 microliters) was added in well A2 and A3, and then was added 2 μL of inhibitor solution in A1 and A4 through A12. […] The plate was incubated for 5 minutes in the plate reader at 30° C. During incubation, the working solution of substrate was prepared by mixing 3.68 mL of buffer A with 266 μL of 0.5 mM substrate solution. At t=0, 30 μL of working substrate solution was added and readings were started ([S]final: 5 μM).

[2] = tested on: male C57Bl/6 mice on high-fat, high-fructose diet; experiment: Metabolic Syndrome Model 1: diet induced obesity mouse model; type: in vivo
Protocol: A diet induced obesity mouse model was used to evaluate the efficacy of the sEH inhibitor 1-[1-(methylsulfonyl)piperidin-4-yl]-3-(adamant-1-yl)urea (Compound 5) for the treatment of metabolic syndrome and the adverse conditions related thereto.
The study was performed using 7-8 week old male C57Bl/6 mice. The mice were acclimated a minimum of five days prior to the start of study and were housed five per cage in microisolators in a 12:12 light/dark cycle (all work was done in a BioBubble Hood™). Water and food was provided ad libitum.
The mice were provided a high-fat, high-fructose diet for a total of 11 weeks, within the first 5 weeks the animals became obese, insulin resistant, have increased plasma cholesterol and mildly hypertensive. The mice were separated into three groups, each group consisting of 10 mice after the first 5 weeks on the high-fat, high-fructose diet. The mice continued to receive the high-fat, high-fructose diet but also began to receive treatment for the remaining 6 weeks of the study for a total of 11 weeks of study. During the treatment phase, Group 1 was administered vehicle alone, perorally, twice a day for six weeks (control group); group 2 was administered 20 mg/kg of Compound 5, perorally, twice a day for six weeks; group 3 was administered 60 mg/kg Compound 5, perorally, twice a day for six weeks. At intervals of 3 and 5.5 weeks after the beginning of the treatment phase of the study, glucose tolerance tests were administered. At the beginning of the treatment phase and after 5 weeks of dosing, samples were collected for plasma cholesterol measurements. Blood pressure was measured 3 weeks after the start of the treatment phase of the study.
HF diet with 45% fat by calorie (Research Diets, D12451)
High-Fructose (degassed 7up)
Group 2) High-Fat Diet+Compound 5-20 mg/kg p.o. (perorally) b.i.d. (twice a day)
Group 3) High-Fat Diet+Compound 5-60 mg/kg p.o. (perorally) b.i.d. (twice a day)
Throughout duration of the study body weight, food, and fructose consumption was measured twice a week. Blood pressure and heart rate was measured one week.
Mice were randomized on the basis of average Body Weight in each of the three groups (n=10/gp).
GTT—Animals were fasted for 4 hours followed by a glucose load (2 g/kG body wt). The tip (3 mm) of the tail was excised and blood samples were taken for glucose clearance measurements (Glucometer) at T=0, 15, 30, 60, 90, and 120 minutes. This test determines if the animal is has glucose intolerance.
Plasma was analyzed using a lipid and chem panel analysis (Lipid-total cholesterol, HDL, LDL and Triglycerides, FFA).
p.o. (perorally) dosing of Compound 5 at 20 mg/kg and at 60 mg/kg begins b.i.d. twice a day) for […]
Measure blood pressure using a non-invasive CODA 6 occlusion cuff system

[3] = tested on: Zucker diabetic fatty rats (ZDF); experiment: Model 4: Zucker diabetic fatty rats; type: in vivo; settings: daily dose of 100 mg/kg for four weeks, vs vehicle
Protocol: All protocols were approved by the institutional animal care and use committee at Arête Therapeutics. Eight weeks old male Zucker diabetic fatty rats (ZDF) (Charles River Laboratory, Hollister, Calif.) with a 270 g body weight on average used in this study were fed a normal chow. Baseline blood pressure and body weight were measured before surgery. Animals were anesthetized by inhalation of 2% isoflurane. The animals were randomly divided into 2 groups; […] Four animals were assigned to the vehicle group and three to the Compound 2 group. After 4 weeks of treatment, systolic blood pressure was measured in conscious mice using a tail-cuff system (Kent Scientific Corporation, Torrington, Conn.), and the animals were euthanized. Blood samples were collected via cardiac puncture for the measurement of a serum cholesterol profile (IDEXX Veterinary Services, West Sacramento, Calif.) and tissues were removed for analysis. All results are presented as the mean and standard error (SEM). Comparison between the vehicle and Compound 2 treatment groups was performed using Student's t test.

SMILES: CCCCc1nc(Cl)c(CO)n1Cc1ccc(-c2ccccc2-c2nn[nH]n2)cc1 [Losartan, reference compound]
- weight gain, HF-fed animals [1]: gained less weight

SMILES: CC(=O)N1CCC(NC(=O)Nc2cccc(C(F)(F)F)c2)CC1 [Compound 9, 1-(1-Acetyl-piperidin-4-yl)-3-(3-trifluoromethyl-phenyl)-urea]
- IC50 (sEH): 10.1 nM

SMILES: CS(=O)(=O)N1CCC(NC(=O)NC23CC4CC(CC(C4)C2)C3)CC1 [Compound 5, 1-[1-(methylsulfonyl)piperidin-4-yl]-3-(adamant-1-yl) urea]
- cholesterol level ([2]; 60 mg/kg twice a day, vs vehicle, p<0.01): statistically lower cholesterol level
- blood pressure ([2]; 60 mg/kg twice a day, vs vehicle, p<0.05): statistically significantly lower blood pressure
- heart rate ([2]; 20 and 60 mg/kg b.i.d.): did not significantly alter heart rate
- systolic and diastolic blood pressure ([2]; 20 and 60 mg/kg b.i.d., 3 weeks of treatment, vs control): reduced
- serum glucose in GTT ([2]; 20 and 60 mg/kg p.o. b.i.d., relative to control group): decrease in serum glucose
- area under the curve for plasma glucose after interperitonial glucose ([2]; both 20 and 60 mg/kg twice a day, vs vehicle and start of treatment, p<0.01): statistically lower area under the curve
- body weight ([2]; either dose (20 or 60 mg/kg p.o. b.i.d.), vs vehicle): stabilization in body weight
- plasma cholesterol levels ([2]; relative to control group, 5 weeks of dosing): reduced
- mean blood pressure ([2]; vs control group): similarly reduced
- weight gain, HF-fed animals [1]: gained less weight
- total plasma cholesterol [1]: statistically significant decreases in cholesterol
- glucose tolerance (GTT) [1]: statistically significant improvements in glucose tolerance
- statistical significance of attenuated weight gain [1]: statistically significant
- body weights, animals on NC ([1]; NC diet, Compound 5 60 mg/kg twice daily vs vehicle): similar

SMILES: O=C(Nc1ccc(C(F)(F)F)cc1)Nc1cccc(C(=O)N2CCOCC2)c1 [Compound 1, 1-[3-(morpholino-4-carbonyl)phenyl]-3-(4-trifluoromethylphenyl) urea]
- % Inhibition (sEH; Concentration 50 nM): 82%

SMILES: CS(=O)(=O)N1CCC(NC(=O)Nc2ccc(C(F)(F)F)cc2)CC1 [Compound 4, 1-[1-(methylsulfonyl)piperidin-4-yl]-3-(4-trifluoromethylphenyl) urea]
- weight gain, HF-fed animals [1]: gained less weight
- total plasma cholesterol [1]: decreases in total plasma cholesterol level, although not statistically significant
- glucose tolerance (GTT) [1]: statistically significant improvements in glucose tolerance

SMILES: CC(C)OC(=O)N1CCC(NC(=O)Nc2ccc(C(F)(F)F)cc2)CC1 [Compound 11, isopropyl 4-(3-(4-(trifluoro-methyl)phenyl)ureido)-piperidine-1-carboxylate]
- IC50 (sEH): 0.8 nM

SMILES: CC(=O)N1CCC(NC(=O)Nc2ccc(C(F)(F)F)cc2)CC1 [Compound 3, 1-[1-(acetyl)piperidin-4-yl]-3-(4-trifluoromethylphenyl) urea]
- weight gain, HF-fed animals [1]: gained less weight
- total plasma cholesterol [1]: slight elevation of total cholesterol
- glucose tolerance (GTT) [1]: statistically significant improvements in glucose tolerance
- statistical significance of attenuated weight gain [1]: statistically significant

SMILES: CC(=O)N1CCC(NC(=O)NC23CC4CC(CC(C4)C2)C3)CC1 [Compound 2, 1-[1-(acetyl)piperidin-4-yl]-3-(adamant-1-yl) urea]
- HDL level [3]: decreased
- LDL [3]: significantly decreased
- blood glycated hemoglobin (HbA1c %) [3]: significantly decreased
- fasting plasma glucose level [3]: significantly decreased
- total cholesterol [3]: significantly decreased
- triglycerides (TGs) [3]: significantly decreased

SMILES: CC(C)(C)CC(=O)N1CCC(NC(=O)Nc2ccc(C(F)(F)F)cc2)CC1 [Compound 7, 1-(1-(3,3-dimethylbutanoyl)piperidin-4-yl)-3-(4-(trifluoromethyl)phenyl)urea]
- IC50 (sEH): 0.8 nM

Other lines, results leading:

- IC50 (sEH): 7.5 nM
SMILES: O=C(Nc1ccc(C(F)(F)F)cc1)NC1CCN(c2ccc(C(F)(F)F)cn2)CC1 [Compound 14, 1-(4-(trifluoromethyl)-phenyl)-3-(1-(5-(trifluoromethyl)-pyridin-2-yl)piperidin-4-yl)urea]

- IC50 (sEH): 5.3 nM
SMILES: O=C(NC1CCCCC1)NC1CCN(C(=O)c2ccccn2)CC1 [Compound 12, 1-cyclohexyl-3-(1-picolinoylpiperidin-4-yl)urea]

- IC50 (sEH): 1.6 nM
SMILES: CC(C)S(=O)(=O)N1CCC(NC(=O)Nc2ccc(OC(F)(F)F)cc2)CC1 [Compound 13, 1-(1-(isopropylsulfonyl)piperidin-4-yl)-3-(4-(trifluoromethoxy)phenyl)urea]

- IC50 (sEH): 3.8 nM
SMILES: O=C(Nc1ccc(C(F)(F)F)cc1)Nc1ccc(S(=O)(=O)c2ccccc2)cc1 [Compound 18, 1-(4-benzenesulfonyl-phenyl)-3-(4-trifluoromethyl-phenyl)-urea]

- IC50 (sEH): 2.1 nM
SMILES: CC(C)OC(=O)N1CCC(NC(=O)Nc2ccc(OC(F)(F)F)cc2)CC1 [Compound 15, isopropyl 4-(3-(4-(trifluoromethoxy)phenyl)ureido)piperidine-1-carboxylate]

- IC50 (sEH): 7.1 nM
SMILES: O=C(Nc1ccc(C(F)(F)F)cc1)Nc1ccc(Oc2ccccc2)nc1 [Compound 16, 1-(6-phenoxypyridin-3-yl)-3-(4-(trifluoromethyl)phenyl)urea]

- IC50 (sEH): 6.2 nM
SMILES: CC(=O)NC1CCC(NC(=O)Nc2ccc(C(F)(F)F)cc2)CC1 (stereo not drawn) [Compound 17, N-(4-(3-(4-(trifluoromethyl)phenyl)ureido)cyclohexyl)acetamide]
